{"source": "patent US7973080B2", "about": "(Ambria Dermatology AB, priority 2003, dated 2011)", "test_in_all_cases": "MIC by standard blood agar dilution technique", "key": {"Escherichia coli": {"test_system": "Escherichia coli", "details": "E. coli 921 × 57418", "excerpt": "(§1) The following bacteria were investigated: methicillin-resistant Staphylococcus aureus (MSRA), fucidic acid-resistant S. aureus, non-resistant S. pyogenes, coagulation-negative staphylococci (for resistance, see Table 1 below) vancomycin-resistant enterococci (Enterococcus CCUG van A and van B), non-resistant Escherichia coli, Acinetobacter resistant against cefadroxil, nitrofurantin, mecillinam, Serratia maltophilia resistant against most types of antibiotics, Enterobacter (for resistance, see Table 1 below; additionally resistant against cefadroxil and nitrofurantin), non-resistant α-streptococci, non-resistant Streptococcus Group G, Pseudomonas aeruginosa (for resistance, see Table 2 below). Inocula of 10^3 and 10^5 bacteria were used."}, "Alphastreptococci": {"test_system": "Alphastreptococci", "details": "inoculate size 10^3", "excerpt": "as §1"}, "Streptococcus group G": {"test_system": "Streptococcus group G", "details": "inoculate size 10^3", "excerpt": "as §1"}, "S. aureus": {"test_system": "S. aureus", "excerpt": "as §1"}, "S. pyogenes, group A": {"test_system": "S. pyogenes, group A", "excerpt": "as §1"}, "Enterococcus": {"test_system": "Enterococcus", "details": "MR fuc +", "excerpt": "as §1"}, "Streptococcus group C": {"test_system": "Streptococcus group C", "details": "inoculate size 10^3", "excerpt": "as §1"}}, "data": [{"smiles": "OCCCCCO", "note": "[pentane-1,5-diol]", "values": [{"measurement": "MIC (% by weight of pentane-1,5-diol)", "setting": "Escherichia coli; inoculate size 10^3", "value": 5.0, "unit": "% by weight"}, {"measurement": "MIC (% by weight of pentane-1,5-diol)", "setting": "Escherichia coli; inoculate size 10^5", "value": 10.0, "unit": "% by weight"}, {"measurement": "MIC (% by weight of pentane-1,5-diol)", "setting": "Alphastreptococci; Alphastreptococci 912 × 1135", "value": 7.5, "unit": "% by weight"}, {"measurement": "MIC (% by weight of pentane-1,5-diol)", "setting": "Alphastreptococci; Alphastreptococci 912 × 1137", "value": 5.0, "unit": "% by weight"}, {"measurement": "MIC (% by weight of pentane-1,5-diol)", "setting": "Alphastreptococci; Alphastreptococci 912 × 1138", "value": 5.0, "unit": "% by weight"}, {"measurement": "MIC (% by weight of pentane-1,5-diol)", "setting": "Alphastreptococci; Alphastreptococci 912 × 1139", "value": 7.5, "unit": "% by weight"}, {"measurement": "MIC (% by weight of pentane-1,5-diol)", "setting": "Alphastreptococci; Alphastreptococci 912 × 1200", "value": 7.5, "unit": "% by weight"}, {"measurement": "MIC (% by weight of pentane-1,5-diol)", "setting": "Streptococcus group G; Strepotocccus group G 912 × 1106", "value": 7.5, "unit": "% by weight"}, {"measurement": "MIC (% by weight of pentane-1,5-diol)", "setting": "Streptococcus group G; Streptococcus group G 900 × 1714", "value": 10.0, "unit": "% by weight"}, {"measurement": "MIC (% by weight of pentane-1,5-diol)", "setting": "Streptococcus group G; Streptococcus group G 915 × 1095", "value": 7.5, "unit": "% by weight"}, {"measurement": "MIC (% by weight of pentane-1,5-diol)", "setting": "Streptococcus group G; Streptococcus group G 915 × 1146", "value": 7.5, "unit": "% by weight"}, {"measurement": "MIC (% by weight of pentane-1,5-diol)", "setting": "Streptococcus group G; Streptococcus group G 916 × 10985", "value": 7.5, "unit": "% by weight"}, {"measurement": "MIC (% by weight of pentane-1,5-diol)", "setting": "S. aureus; S. aureus 916 × 8137, inoculate size 10^3, MR fuc −", "value": 12.5, "unit": "% by weight"}, {"measurement": "MIC (% by weight of pentane-1,5-diol)", "setting": "S. aureus; S. aureus 916 × 8137, inoculate size 10^5, MR fuc −", "value": 10.0, "unit": "% by weight"}, {"measurement": "MIC (% by weight of pentane-1,5-diol)", "setting": "S. aureus; S. aureus 916 × 8143, inoculate size 10^3, MR fuc −", "value": 12.5, "unit": "% by weight"}, {"measurement": "MIC (% by weight of pentane-1,5-diol)", "setting": "S. aureus; S. aureus 916 × 8143, inoculate size 10^5, MR fuc −", "value": 12.5, "unit": "% by weight"}, {"measurement": "MIC (% by weight of pentane-1,5-diol)", "setting": "S. aureus; S. aureus 916 × 8150, inoculate size 10^3, MR fuc −", "value": 12.5, "unit": "% by weight"}, {"measurement": "MIC (% by weight of pentane-1,5-diol)", "setting": "S. aureus; S. aureus 916 × 8150, inoculate size 10^5, MR fuc −", "value": 15.0, "unit": "% by weight"}, {"measurement": "MIC (% by weight of pentane-1,5-diol)", "setting": "S. aureus; S. aureus 916 × 8155, inoculate size 10^3, MR fuc −", "value": 10.0, "unit": "% by weight"}, {"measurement": "MIC (% by weight of pentane-1,5-diol)", "setting": "S. aureus; S. aureus 916 × 8155, inoculate size 10^5, MR fuc −", "value": 12.5, "unit": "% by weight"}, {"measurement": "MIC (% by weight of pentane-1,5-diol)", "setting": "S. aureus; S. aureus 916 × 8158, inoculate size 10^3, MR fuc −", "value": 12.5, "unit": "% by weight"}, {"measurement": "MIC (% by weight of pentane-1,5-diol)", "setting": "S. aureus; S. aureus 916 × 8158, inoculate size 10^5, MR fuc −", "value": 15.0, "unit": "% by weight"}, {"measurement": "MIC (% by weight of pentane-1,5-diol)", "setting": "S. aureus; S. aureus 916 × 8163, inoculate size 10^3, MR fuc +", "value": 12.5, "unit": "% by weight"}, {"measurement": "MIC (% by weight of pentane-1,5-diol)", "setting": "S. aureus; S. aureus 916 × 8163, inoculate size 10^5, MR fuc +", "value": 17.5, "unit": "% by weight"}, {"measurement": "MIC (% by weight of pentane-1,5-diol)", "setting": "S. aureus; S. aureus 916 × 8180, inoculate size 10^3, MR fuc −", "value": 12.5, "unit": "% by weight"}, {"measurement": "MIC (% by weight of pentane-1,5-diol)", "setting": "S. aureus; S. aureus 916 × 8180, inoculate size 10^5, MR fuc −", "value": 15.0, "unit": "% by weight"}, {"measurement": "MIC (% by weight of pentane-1,5-diol)", "setting": "S. aureus; S. aureus 916 × 8181, inoculate size 10^3, MR fuc −", "value": 12.5, "unit": "% by weight"}, {"measurement": "MIC (% by weight of pentane-1,5-diol)", "setting": "S. aureus; S. aureus 916 × 8181, inoculate size 10^5, MR fuc −", "value": 15.0, "unit": "% by weight"}, {"measurement": "MIC (% by weight of pentane-1,5-diol)", "setting": "S. aureus; S. aureus 916 × 8183, inoculate size 10^3, MR fuc −", "value": 12.5, "unit": "% by weight"}, {"measurement": "MIC (% by weight of pentane-1,5-diol)", "setting": "S. aureus; S. aureus 916 × 8183, inoculate size 10^5, MR fuc −", "value": 17.5, "unit": "% by weight"}, {"measurement": "MIC (% by weight of pentane-1,5-diol)", "setting": "S. aureus; S. aureus 916 × 8184, inoculate size 10^3, MR fuc +", "value": 10.0, "unit": "% by weight"}, {"measurement": "MIC (% by weight of pentane-1,5-diol)", "setting": "S. aureus; S. aureus 916 × 8184, inoculate size 10^5, MR fuc +", "value": 12.5, "unit": "% by weight"}, {"measurement": "MIC (% by weight of pentane-1,5-diol)", "setting": "S. aureus; S. aureus 916 × 8191, inoculate size 10^3, MR fuc −", "value": 12.5, "unit": "% by weight"}, {"measurement": "MIC (% by weight of pentane-1,5-diol)", "setting": "S. aureus; S. aureus 916 × 8191, inoculate size 10^5, MR fuc −", "value": 15.0, "unit": "% by weight"}, {"measurement": "MIC (% by weight of pentane-1,5-diol)", "setting": "S. pyogenes, group A; group A 912 × 1090, inoculate size 10^3", "value": 7.5, "unit": "% by weight"}, {"measurement": "MIC (% by weight of pentane-1,5-diol)", "setting": "S. pyogenes, group A; group A 912 × 1115, inoculate size 10^3", "value": 7.5, "unit": "% by weight"}, {"measurement": "MIC (% by weight of pentane-1,5-diol)", "setting": "S. pyogenes, group A; group A 912 × 1119, inoculate size 10^3", "value": 7.5, "unit": "% by weight"}, {"measurement": "MIC (% by weight of pentane-1,5-diol)", "setting": "S. pyogenes, group A; group A 912 × 1121, inoculate size 10^3", "value": 7.5, "unit": "% by weight"}, {"measurement": "MIC (% by weight of pentane-1,5-diol)", "setting": "S. pyogenes, group A; group A 912 × 1131, inoculate size 10^3", "value": 7.5, "unit": "% by weight"}, {"measurement": "MIC (% by weight of pentane-1,5-diol)", "setting": "Enterococcus; Enterococcus 921 × 57002, inoculate size 10^3, van −, tri −", "value": 7.5, "unit": "% by weight"}, {"measurement": "MIC (% by weight of pentane-1,5-diol)", "setting": "Enterococcus; Enterococcus 921 × 57002, inoculate size 10^5, van −, tri −", "value": 10.0, "unit": "% by weight"}, {"measurement": "MIC (% by weight of pentane-1,5-diol)", "setting": "Enterococcus; Enterococcus 921 × 57022, inoculate size 10^3, van −, cip +, tri +", "value": 5.0, "unit": "% by weight"}, {"measurement": "MIC (% by weight of pentane-1,5-diol)", "setting": "Enterococcus; Enterococcus 921 × 57022, inoculate size 10^5, van −, cip +, tri +", "value": 7.5, "unit": "% by weight"}, {"measurement": "MIC (% by weight of pentane-1,5-diol)", "setting": "Enterococcus; Enterococcus 921 × 57057, inoculate size 10^3, van −, tri −", "value": 7.5, "unit": "% by weight"}, {"measurement": "MIC (% by weight of pentane-1,5-diol)", "setting": "Enterococcus; Enterococcus 921 × 57057, inoculate size 10^5, van −, tri −", "value": 10.9, "unit": "% by weight"}, {"measurement": "MIC (% by weight of pentane-1,5-diol)", "setting": "Enterococcus; Enterococcus 921 × 57093, inoculate size 10^3, van −, tri +", "value": 7.5, "unit": "% by weight"}, {"measurement": "MIC (% by weight of pentane-1,5-diol)", "setting": "Enterococcus; Enterococcus 921 × 57093, inoculate size 10^5, van −, tri +", "value": 10.0, "unit": "% by weight"}, {"measurement": "MIC (% by weight of pentane-1,5-diol)", "setting": "Enterococcus; Enterococcus 921 × 57158, inoculate size 10^3, van −, tri +", "value": 7.5, "unit": "% by weight"}, {"measurement": "MIC (% by weight of pentane-1,5-diol)", "setting": "Enterococcus; Enterococcus 921 × 57158, inoculate size 10^5, van −, tri +", "value": 7.5, "unit": "% by weight"}, {"measurement": "MIC (% by weight of pentane-1,5-diol)", "setting": "Enterococcus; Enterococcus CCUG 37593 vanB, inoculate size 10^3, van +", "value": 5.0, "unit": "% by weight"}, {"measurement": "MIC (% by weight of pentane-1,5-diol)", "setting": "Enterococcus; Enterococcus CCUG 37593 vanB, inoculate size 10^5, van +", "value": 7.5, "unit": "% by weight"}, {"measurement": "MIC (% by weight of pentane-1,5-diol)", "setting": "Enterococcus; Enterococcus CCUG 37832 vanA, inoculate size 10^3, van +", "value": 5.0, "unit": "% by weight"}, {"measurement": "MIC (% by weight of pentane-1,5-diol)", "setting": "Enterococcus; Enterococcus CCUG 37832 vanA, inoculate size 10^5, van +", "value": 7.5, "unit": "% by weight"}, {"measurement": "MIC (% by weight of pentane-1,5-diol)", "setting": "Enterococcus; Enterococcus CCUG 39128 vanA, inoculate size 10^3, van +", "value": 5.0, "unit": "% by weight"}, {"measurement": "MIC (% by weight of pentane-1,5-diol)", "setting": "Enterococcus; Enterococcus CCUG 39128 vanA, inoculate size 10^5, van +", "value": 10.0, "unit": "% by weight"}, {"measurement": "MIC (% by weight of pentane-1,5-diol)", "setting": "Enterococcus; Enterococcus CCUG 43324 vanA, inoculate size 10^3, van +", "value": 7.5, "unit": "% by weight"}, {"measurement": "MIC (% by weight of pentane-1,5-diol)", "setting": "Enterococcus; Enterococcus CCUG 43324 vanA, inoculate size 10^5, van +", "value": 10.0, "unit": "% by weight"}, {"measurement": "MIC (% by weight of pentane-1,5-diol)", "setting": "Streptococcus group C; Streptococcus group C 900 × 1618", "value": 7.5, "unit": "% by weight"}, {"measurement": "MIC (% by weight of pentane-1,5-diol)", "setting": "Streptococcus group C; Streptococcus group C 912 × 1114", "value": 10.0, "unit": "% by weight"}, {"measurement": "MIC (% by weight of pentane-1,5-diol)", "setting": "Streptococcus group C; Streptococcus group C 912 × 1185", "value": 10.0, "unit": "% by weight"}]}]}
